We go through 7 molecules from patent publication US10570117B2, “Phenylimidazole compound” (Otsuka Pharmaceutical Factory, Inc., priority 2015, dated 2020).

Data set [1] in a line: Solubility in gastric juice or intestinal juice model fluid (precipitation method using DMSO). The class given is physicochemical. Particulars: room temperature. The method, boiled down: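 Dissolved amount (μg/mL) quantified by UV of filtrate versus pre-made calibration curves. Precipitation approach: DMSO solutions spiked into pH 1.2 (JP 1st fluid) or pH 6.8 (JP 2nd fluid) medium, shaken at room temperature for 24 h before insolubles were filtered off.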

The subject of data set [2] is lipoprotein lipase (LPL) gene. Description: LPL mRNA elevating action (RT-PCR quantification of LPL mRNA in C2Cl2 cells). The class given is cell-based, mouse. Particulars: Mus musculus, 24 h, compound 10 μM, ratio relative to the amount of LPL mRNA in cells with DMSO only, read-out: Rate of increase in LPL mRNA. The method, boiled down: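 Read-out is LPL mRNA relative to vehicle (DMSO = 1), measured by reverse transcription and 20-cycle real-time PCR. Cells were the mouse striated-muscle line C2Cl2, treated 24 h with 10 μM compound in DMEM containing 10% FBS.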

[3] abbreviates: pH 1.2, simulated gastric fluid, kinetic from dmso stock, 1st fluid for Disintegration Test of Japanese Pharmacopoeia (pH: 1.2), read-out: Solubility (μg/mL) 1st fluid.
Setting [4] is: pH 6.8, kinetic from dmso stock, 2nd fluid for Disintegration Test of Japanese Pharmacopoeia (pH: 6.8), read-out: Solubility (μg/mL) 2nd fluid.

≈ marks a conversion by molar mass, not a printed value. Like-named read-outs stand apart in the source and are kept apart here.

The melting point is the temperature, or range, at which the solid turns liquid. For the molecule `COc1cc(OCc2cncc(C(F)(F)F)c2)ccc1-c1[nH]c(-c2ccc(F)nc2)nc1Br` [Example 270], the melting point was 176 to 179 °C. Also, in data set [1] (setting [3]), the solubility at 24 h was 9.1 µg/mL (≈ 17.4 µM). For the same molecule, the solubility at 24 h in data set [1] (setting [4]) was less than 0.4 µg/mL. Further, the fold induction at 10 µM in data set [2] was 3.81.

Consider `COc1cc(OCc2ncc(C(F)(F)F)cc2F)ccc1-c1[nH]c(C(C)C)nc1Cl` [Example 385], for which the melting point is 131 to 135 °C. Besides, the solubility at 24 h in data set [1] (setting [3]) is 84.7 µg/mL (≈ 191 µM). Also, the solubility at 24 h in data set [1] (setting [4]) worked out at 2.1 µg/mL (≈ 4.73 µM). Further, in data set [2], the fold induction at 10 µM is 3.18.

`COc1cc(OCc2ccc(C(F)(F)F)cn2)ccc1-c1c[nH]c(C2CCC(C)CC2)n1` (stereo not shown) [Example 65] gave a melting point of 137 to 142 °C. Also, the solubility at 24 h in data set [1] (setting [3]) was 77.3 µg/mL (≈ 174 µM). In data set [1] (setting [4]), the solubility at 24 h was 1.3 µg/mL (≈ 2.92 µM). The fold induction at 10 µM in data set [2] worked out at 2.89.

In turn, `COc1cc(-c2[nH]c(C3CCC(F)(F)CC3)nc2Cl)ccc1OCc1ccc(C(F)(F)F)nc1` [Example 203] had a melting point of 164 to 167 °C. Further, the solubility at 24 h in data set [1] (setting [3]) was 63.8 µg/mL (≈ 127 µM). Also, the solubility at 24 h in data set [1] (setting [4]) was less than 1.8 µg/mL. Moreover, the fold induction at 10 µM in data set [2] was 5.47.

`COc1cc(OCc2c(F)cc(C(F)(F)F)c[n+]2[O-])ccc1-c1cnc(-c2ccc(F)nc2)[nH]1` [Example 316]: the melting point was 162 to 167 °C. The solubility at 24 h in data set [1] (setting [3]) was 94.4 µg/mL (≈ 197 µM). Besides, the solubility at 24 h in data set [1] (setting [4]) came to 4.9 µg/mL (≈ 10.2 µM). Besides, the fold induction at 10 µM in data set [2] was 2.53.

The molecule `COc1cc(-c2[nH]c(C3CCC(F)(F)C3)nc2Cl)ccc1OCc1ccc(C(F)(F)F)cn1` (stereo not shown) [Example 189] registered a melting point of 159 to 161 °C. Moreover, in data set [1] (setting [3]), the solubility at 24 h was 89 µg/mL (≈ 182 µM). The solubility at 24 h in data set [1] (setting [4]) came to 11.6 µg/mL (≈ 23.8 µM). In data set [2], the fold induction at 10 µM came out at 3.51.

Take `COc1cc(OCc2ncc(C(F)(F)F)cc2F)ccc1-c1[nH]c(CCC(F)(F)F)nc1Cl` [Example 394]: the melting point was 154 to 159 °C. Further, the solubility at 24 h in data set [1] (setting [3]) is 96.3 µg/mL (≈ 193 µM). In data set [1] (setting [4]), the solubility at 24 h was less than 0.4 µg/mL. For the same molecule, the fold induction at 10 µM in data set [2] was 2.39.
